The source made the active and inactive calls. No cut-off for these calls is given here.
Key:
[1] = Toxicity in MOG (35 to 55 residues)/pertussis toxin-induced experimental autoimmune encephalomyelitis C57BL/6 mouse model assessed as body weight loss at 5 to 10 mg/kg, ip administered starting from day 3 to day 28; assay type: organism-based; details: in vivo, 600 h, dose 5-10 mg/kg, time 25 day
Cannabinoid receptor 1 [2] = target: T1, Cannabinoid receptor 1 (Homo sapiens, UniProt P21554); experiment: Agonist activity at recombinant human CB1 receptor expressed in CHO cells assessed as inhibition of forskolin-induced cAMP accumulation preincubated for 15 mins followed by forskolin stimulation and measured after 15 mins by HTRF assay; assay type: functional, cell-based
T1 sequence (P21554 whole entry, the tested form may be a part): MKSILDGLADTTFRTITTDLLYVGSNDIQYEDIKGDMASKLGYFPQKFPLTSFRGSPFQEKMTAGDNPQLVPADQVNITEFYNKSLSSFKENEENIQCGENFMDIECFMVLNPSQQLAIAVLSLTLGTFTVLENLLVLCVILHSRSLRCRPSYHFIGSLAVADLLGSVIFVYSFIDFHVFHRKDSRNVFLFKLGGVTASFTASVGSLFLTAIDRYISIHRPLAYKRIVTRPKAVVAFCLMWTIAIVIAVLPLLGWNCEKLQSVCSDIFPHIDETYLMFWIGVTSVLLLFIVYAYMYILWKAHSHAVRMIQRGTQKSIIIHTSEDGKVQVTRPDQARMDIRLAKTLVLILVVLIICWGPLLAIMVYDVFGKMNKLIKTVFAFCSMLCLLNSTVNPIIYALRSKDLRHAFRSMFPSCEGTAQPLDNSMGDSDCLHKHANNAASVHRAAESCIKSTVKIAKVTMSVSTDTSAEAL

Mus musculus [3] = experiment: Antiinflammatory activity in MOG (35 to 55 residues)/pertussis toxin-induced experimental autoimmune encephalomyelitis C57BL/6 mouse model assessed as reduction in clinical score administered intraperitoneally starting from day 3 to day 28; assay type: functional, organism-based; details: route ip, time 25.0 day, DDE = dose-dependent effect
[4] = Metabolic stability in mouse liver microsomes assessed as half life; assay type: ADME, Microsome
Mus musculus [5] = experiment: (§1) Antiinflammatory activity in MOG (35 to 55 residues)/pertussis toxin-induced experimental autoimmune encephalomyelitis C57BL/6 mouse model assessed as reduction of inflammatory cell infiltration in transverse section of lumbar spinal cords at 5 to 10 mg/kg, ip administered starting from day 3 to day 28 by H&E staining based analysis; assay type: functional, organism-based; details: dose 5-10 mg/kg, time 25.0 day
[6] = AUCinfinity in C57BL/6 mouse at 10 mg/kg, ip measured upto 24 hrs by LC/MS-MS analysis; assay type: ADME, organism-based; set-up: dose 10 mg/kg, time < 24 hrs, route ip; details: in vivo
[7] = Metabolic stability in human liver microsomes assessed as intrinsic clearance; assay type: ADME, Microsome; details: read-out: CLH
Mus musculus [8] = experiment: as §1, with “in demyelination” for “of inflammatory cell infiltration”, “LFB” for “H&E”; assay type: functional, organism-based; details: dose 5-10 mg/kg, time 25.0 day
[9] = Cmax in C57BL/6 mouse at 10 mg/kg, ip measured upto 24 hrs by LC-MS/MS analysis; assay type: ADME, organism-based; set-up: dose 10 mg/kg, time < 24 hrs, route ip; details: in vivo
[10] = Half life in C57BL/6 mouse at 10 mg/kg, ip measured upto 24 hrs by LC-MS/MS analysis; assay type: ADME, organism-based; details: in vivo
[11] = AUClast in C57BL/6 mouse at 10 mg/kg, ip measured upto 24 hrs by LC-MS/MS analysis; assay type: ADME, organism-based; set-up: time < 24 hrs, dose 10 mg/kg, route ip; details: in vivo
Cannabinoid receptor 2 [12] = target: T2, Cannabinoid receptor 2 (Homo sapiens, UniProt P34972); experiment: Agonist activity at recombinant human CB2 receptor expressed in CHO cells assessed as inhibition of forskolin-induced cAMP accumulation preincubated for 15 mins followed by forskolin stimulation and measured after 15 mins by HTRF assay; assay type: functional, cell-based
T2 sequence (P34972 whole entry, the tested form may be a part): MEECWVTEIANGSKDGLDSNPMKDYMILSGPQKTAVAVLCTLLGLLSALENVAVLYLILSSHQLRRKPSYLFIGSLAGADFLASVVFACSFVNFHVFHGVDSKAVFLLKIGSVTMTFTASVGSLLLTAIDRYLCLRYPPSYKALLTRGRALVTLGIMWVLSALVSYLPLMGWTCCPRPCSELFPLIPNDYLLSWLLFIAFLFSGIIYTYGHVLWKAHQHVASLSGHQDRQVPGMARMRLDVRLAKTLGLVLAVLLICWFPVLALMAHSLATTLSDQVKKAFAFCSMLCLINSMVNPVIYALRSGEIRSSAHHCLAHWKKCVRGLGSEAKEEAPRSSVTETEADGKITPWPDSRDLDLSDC

Mus musculus [13] = experiment: Antiinflammatory activity in MOG (35 to 55 residues)/pertussis toxin-induced experimental autoimmune encephalomyelitis C57BL/6 mouse model assessed as reduction in infarcted brain proportion at 5 to 10 mg/kg, ip administered starting from day 3 to day 28 by TTC staining based analysis relative to control; assay type: functional; set-up: scale not given: the % may be the effect or the level left; details: dose 5-10 mg/kg, time 25 day
Mus musculus [14] = experiment: as §1, with “LFB” for “H&E”; assay type: functional, organism-based; details: dose 5-10 mg/kg, time 25.0 day
[15] = Tmax in C57BL/6 mouse at 10 mg/kg, ip measured upto 24 hrs by LC-MS/MS analysis; assay type: ADME, organism-based; details: in vivo
Cannabinoid receptor 2 [16] = target: T2, Cannabinoid receptor 2; experiment: Displacement of [3H]-CP55940 from recombinant human CB2 receptor expressed in CHO cells assessed as inhibition constant incubated for 120 mins by radioligand binding assay; assay type: cell-based
Cannabinoid receptor 1 [17] = target: T1, Cannabinoid receptor 1; experiment: Displacement of [3H]-CP55940 from recombinant human CB1 receptor expressed in CHO cells assessed as inhibition constant incubated for 120 mins by radioligand binding assay; assay type: cell-based
[18] = Metabolic stability in mouse liver microsomes assessed as intrinsic clearance; assay type: ADME, Microsome; details: read-out: CLH
[19] = Metabolic stability in human liver microsomes assessed as half life; assay type: ADME, Microsome
Cannabinoid receptor 2 [20] = target: T2, Cannabinoid receptor 2; experiment: Agonist activity at recombinant human CB2 receptor expressed in CHO cells assessed as inhibition of forskolin-induced cAMP accumulation by measuring maximum efficacy preincubated for 15 mins followed by forskolin stimulation and measured after 15 mins by HTRF assay relative to control; assay type: functional, cell-based; details: filed as agonist, time 30.0 min
[21] = Metabolic stability in rat liver microsomes assessed as intrinsic clearance; assay type: ADME, Microsome; details: read-out: CLH
Mus musculus [22] = experiment: as §1, with “in demyelination” for “of inflammatory cell infiltration”; assay type: functional, organism-based; details: dose 5-10 mg/kg, time 25.0 day
[23] = Metabolic stability in rat liver microsomes assessed as half life; assay type: ADME, Microsome
Cannabinoid receptor 1 [24] = target: T1, Cannabinoid receptor 1; experiment: Agonist activity at recombinant human CB1 receptor expressed in CHO cells assessed as inhibition of forskolin-induced cAMP accumulation by measuring maximum efficacy preincubated for 15 mins followed by forskolin stimulation and measured after 15 mins by HTRF assay relative to control; assay type: functional, cell-based; details: filed as agonist, time 30.0 min
[25] = Toxicity in MOG (35 to 55 residues)/pertussis toxin-induced experimental autoimmune encephalomyelitis C57BL/6 mouse model assessed as behavioral changes at 10 mg/kg, ip administered once daily starting from day 3 to day 28; assay type: organism-based; details: in vivo, 600 h, time 25 day

## C=C(C)[C@@H]1CCC(C)=C[C@H]1c1c(O)cc([Si](C)(C)CCCCCC)cc1O
[1]
  Activity: Non-Toxic
Cannabinoid receptor 1 [2]
  EC50: 219 nM
Mus musculus [3]
  Activity: Dde
[4]
  half-life: 17.1 min
Mus musculus [5]
  Activity: Active
[6]
  AUC(0-inf): 6840 ng·h/mL
[7]
  CLint scaled: 55.2 mL/min/kg
Mus musculus [8]
  Activity: Active
[9]
  Cmax: 1510 ng/mL
[10]
  half-life: 314 min
[11]
  AUC(0-t) at 24 h: 6630 ng·h/mL
Cannabinoid receptor 2 [12]
  EC50: 149 nM
Mus musculus [13]
  Activity: 50%
Mus musculus [14]
  Activity: Active
[15]
  Tmax: 120 min
Cannabinoid receptor 2 [16]
  Ki: 4.66 nM
Cannabinoid receptor 1 [17]
  Ki: 1.56 nM
[18]
  CLint scaled: 128 mL/min/kg
[19]
  half-life: 31.5 min
Cannabinoid receptor 2 [20]
  Emax: 75.6%
[21]
  CLint scaled: 318 mL/min/kg
Mus musculus [22]
  Activity: Active
[23]
  half-life: 19.4 min
Cannabinoid receptor 1 [24]
  Emax: 95.9%
[25]
  Activity: Toxic

— ChEMBL document CHEMBL5096202, “Carbon-silicon switch led to the discovery of novel synthetic cannabinoids with therapeutic effects in a mouse model of multiple sclerosis” (Eur J Med Chem, 2021)
